Data from patent US20090062223A1, “AMINO TRICYCLIC-NUCLEOSIDE COMPOUNDS, COMPOSITIONS, AND METHODS OF USE” (GENELABS TECHNOLOGIES, INC., priority 2007, published 2009).
In brackets after ≈: the same amount, converted by molar mass.

How the values were obtained:
Caco-2 cells = experiment: in vitro; type: in vitro ADME
Experimental: Caco-2 cells were maintained in Dulbecco's Modification of Eagle's Medium (DMEM) with sodium pyruvate, Glutmax supplemented with 1% Pen/Strep, 1% NEAA and 10% fetal bovine serum in an incubator set at 37° C., 90% humidity and 5% CO2. Caco-2 cells between passage 43 and 61 were grown to confluence over at least 21-days on 24 well PET (polyethylene-terephthalate) plates (BD Biosciences). Experiments were run using a new HBSS donor buffer from Invitrogen containing additional 10 mM HEPES, 15 mM Glucose with pH adjusted to pH 6.5. The receiver well used HBSS buffer supplemented with 1% BSA and the pH adjusted to pH 7.4. After an initial equilibration with transport buffer, TEER values were read to test membrane integrity. The experiment was started by the addition of buffers containing test compounds and 100 μl of solution is taken at 1 and 2 hrs from the receiver compartment. Removed buffer was replaced with fresh buffer and a correction was applied to all calculations for the removed material. Each compound was tested in 2 separate replicate wells for each condition. All samples were immediately collected into 400 μl 100% acetonitrile acid to precipitate protein and stabilize test compounds. Cells were dosed on the apical or basolateral side to determine forward (A to B) and reverse (B to A) permeability. Permeability through a cell free trans-well was also determined as a measure of cellular permeability through the membrane and non-specific binding. To test for non-specific binding and compound instability the total amount of drug was quantitated at the end of the experiment and compared to the material present in the original dosing solution as a percent recovery. Samples were analyzed by LC/MS/MS.
The apparent permeability, Papp, and % recovery were calculated as follows: […]
where, • dR/dt is the slope of the cumulative concentration in the receiver compartment versus time in μM/s based on receiver concentrations measured at 60 and 120 minute. • Vr and Vd is the volume in the receiver and donor compartment in cm^3, respectively. • A is the area of the cell monolayer (0.33 cm^2). • D0 and D120 is the measured donor concentration at the beginning and end of the experiment, respectively. • R120 is the receiver concentration at the end of the experiment (120 minutes).
The apparent permeability for certain compounds were determined using the above procedure.

[1] = Solubility (shaking flask); type: physicochemical; conditions: thermodynamic from solid, 37° C. for 24 hours
Experimental: The solubility for certain compounds were determined using the following protocol and procedure. 1) The solution, sterile water or phosphate buffer solution (PBS), was added to the test compound tube to make the final concentration 10 mg/mL. 2) The sample tube was vortexed and incubated at 37° C. for 24 hours. During the incubation period, the sample tube was vortexed several times. 3) After the incubation, vortex the tube and centrifuge the tube at 13,000 rpm for 10 mins using an Eppendorf Centrifuge Model 5415C. If the solution was still cloudy, centrifuge it for longer until a clear supernatant was achieved. 4) The supernatant was diluted to 1×, 10× and 100× in 50% ACN in water. 5) A six point standard curve was prepared separately to make the final concentrations of 1 μg/mL, 5 μg/mL, 10 μg/mL, 20 μg/mL, 40 μg/mL and 60 μg/mL. 6) Samples were quantified using an HPLC with UV detector. 7) From the three concentrations of 1×, 10× and 100× supernatant, choose the value, which was fallen into the standard curve range (1 ug/mL-60 ug/mL), as the final result. If all the results were out of the curve range, adjust using a dilution factor to make the value within the curve range.

[2] = Chemical stability in acidic solution (acid stability); type: physicochemical; conditions: pH 4.5 chemical solution; pH 4.5, 37° C.; read-out: Acid Stability (T ½, mins @ pH 4.5)
[3] = phosphate buffer solution (PBS), aqueous buffer, PBS

| Compound | solubility at 24 h [1, 3] | further results |
| --- | --- | --- |
| CCCCCC(=O)OC[C@H]1O[C@@H](n2cc3c4c(ncnc42)NC(=O)C=C3N)[C@@](C)(O)[C@@H]1OC(=O)CCCCC (stereo in doubt) [Compound 102, Hexanoic acid 5-(9-amino-7-oxo-6,7-dihydro-2,3,5,6-tetraaza-benzo[cd]azulen-2-yl)-3-hexanoyloxy-4-hydroxy-4-methyl-tetrahydro-furan-2-ylmethyl ester] | 11 µg/mL (≈ 20.2 µM) | Permeability Papp (A to B) × 10^−6 cm/s (Caco-2 A-B) (Caco-2 cells): high |
| CC(=O)OC[C@H]1O[C@@H](n2cc3c4c(ncnc42)NC(=O)C=C3N)[C@@](C)(O)[C@@H]1O (stereo in doubt) [Compound 107, Acetic acid 5-(9-amino-7-oxo-6,7-dihydro-2,3,5,6-tetraaza-benzo[cd]azulen-2-yl)-3,4-dihydroxy-4-methyl-tetrahydro-furan-2-ylmethylester] | 9150 µg/mL (≈ 23500 µM) | Permeability Papp (A to B) × 10^−6 cm/s (Caco-2 A-B) (Caco-2 cells): low |
| CC(=O)O[C@@H]1[C@@H](CO)O[C@@H](n2cc3c4c(ncnc42)NC(=O)C=C3N)C1(C)O (stereo in doubt) [Compound 114, Acetic acid 5-(9-amino-7-oxo-6,7-dihydro-2,3,5,6-tetraaza-benzo[cd]azulen-2-yl)-4-hydroxy-2-hydroxymethyl-4-methyl-tetrahydro-furan-3-yl ester] | 2950 µg/mL (≈ 7580 µM) | Permeability Papp (A to B) × 10^−6 cm/s (Caco-2 A-B) (Caco-2 cells): medium |
| CC(=O)OC[C@H]1O[C@@H](n2cc3c4c(ncnc42)NC(=O)C=C3NC(=O)OCOC(=O)C(C)C)C(C)(O)[C@@H]1OC(C)=O (stereo in doubt) [Compound 118, Isobutyric acid 2-(4-acetoxy-5-acetoxymethyl-3-hydroxy-3-methyl-tetrahydro-furan-2-yl)-7-oxo-6,7-dihydro-2H-2,3,5,6-tetraaza-benzo[cd]azulen-9-ylcarbamoyloxymethyl ester] | 60 µg/mL (≈ 104 µM) |  |
| Cc1oc(=O)oc1COC(=O)NC1=CC(=O)Nc2ncnc3c2c1cn3[C@@H]1O[C@H](COC(=O)C(C)C)[C@@H](OC(=O)C(C)C)C1(C)O (stereo in doubt) [Compound 119, Isobutyric acid 4-hydroxy-3-isobutyryloxy-4-methyl-5-[9-(5-methyl-2-oxo-[1,3]dioxol-4-ylmethoxycarbonylamino)-7-oxo-6,7-dihydro-2,3,5,6-tetraaza-benzo[cd]azulen-2-yl]-tetrahydro-furan-2-ylmethyl ester] | 6 µg/mL (≈ 9.32 µM) |  |
| CC(=O)OCOC(=O)NC1=CC(=O)Nc2ncnc3c2c1cn3[C@@H]1O[C@H](COC(C)=O)C(OC(C)=O)[C@@]1(C)O (stereo in doubt) [Compound 120, Acetic acid 3-acetoxy-5-(9-acetoxymethoxycarbonylamino-7-oxo-6,7-dihydro-2,3,5,6-tetraaza-benzo[cd]azulen-2-yl)-4-hydroxy-4-methyl-tetrahydro-furan-2-ylmethylester] | 60 µg/mL (≈ 110 µM) |  |
| CCC(=O)OC[C@H]1O[C@@H](n2cc3c4c(ncnc42)NC(=O)C=C3N)C(C)(O)[C@@H]1OC(=O)CC (stereo in doubt) [Compound 130, Propionic acid 5-(9-amino-7-oxo-6,7-dihydro-2,3,5,6-tetraaza-benzo[cd]azulen-2-yl)-4-hydroxy-4-methyl-3-propionyloxy-tetrahydro-furan-2-ylmethyl ester] | 850 µg/mL (≈ 1850 µM) |  |
| CCC(=O)OC[C@H]1O[C@@H](n2cc3c4c(ncnc42)NC(=O)C=C3N)C(C)(O)[C@@H]1O (stereo in doubt) [Compound 131, Propionic acid 5-(9-amino-7-oxo-6,7-dihydro-2,3,5,6-tetraaza-benzo[cd]azulen-2-yl)-3,4-dihydroxy-4-methyl-tetrahydro-furan-2-ylmethylester] | 8060 µg/mL (≈ 20000 µM) |  |
| CC(=O)OC1(C)[C@H](OC(=O)C(C)C)[C@@H](COC(=O)C(C)C)O[C@H]1n1cc2c3c(ncnc31)NC(=O)C=C2N (stereo in doubt) [Compound 133, Isobutyric acid 4-acetoxy-5-(9-amino-7-oxo-6,7-dihydro-2,3,5,6-tetraaza-benzo[cd]azulen-2-yl)-3-isobutyryloxy-4-methyl-tetrahydro-furan-2-ylmethyl ester] | 17 µg/mL (≈ 32.1 µM) |  |
| CC(C)C(=O)OCOC(=O)NC1=CC(=O)Nc2ncnc3c2c1cn3[C@@H]1O[C@H](CO)[C@@H](OC(=O)[C@@H](N)C(C)C)[C@]1(C)O [Compound 110, 2-Amino-3-methyl-butyric acid 4-hydroxy-2-hydroxymethyl-5-(9-isobutyryloxymethoxycarbonyl-amino-7-oxo-6,7-dihydro-2,3,5,6-tetraaza-benzo[cd]azulen-2-yl)-4-methyl-tetrahydro-furan-3-yl ester] | 8160 µg/mL (≈ 13800 µM) |  |
| CC(=O)OCOC(=O)NC1=CC(=O)Nc2ncnc3c2c1cn3[C@@H]1O[C@H](COC(=O)C(C)C)[C@@H](OC(=O)C(C)C)[C@@]1(C)O [Compound 111, Isobutyric acid 5-(9-acetoxymethoxycarbonylamino-7-oxo-6,7-dihydro-2,3,5,6-tetraaza-benzo[cd]azulen-2-yl)-4-hydroxy-2-isobutyryloxymethyl-4-methyl-tetrahydro-furan-3-yl ester] | 2 µg/mL (≈ 3.31 µM) |  |
| CC(=O)O[C@@H]1[C@@H](CO)O[C@@H](n2cc3c4c(ncnc42)NC(=O)C=C3NC(=O)OCOC(=O)C(C)C)[C@]1(C)O [Compound 112, Isobutyric acid 2-(4-acetoxy-3-hydroxy-5-hydroxymethyl-3-methyl-tetrahydro-furan-2-yl)-7-oxo-6,7-dihydro-2H-2,3,5,6-tetraaza-benzo[cd]azulen-9-ylcarbamoyloxymethyl ester] | 80 µg/mL (≈ 150 µM) |  |
| CC(C)C(=O)OCOC(=O)NC1=CC(=O)Nc2ncnc3c2c1cn3[C@@H]1O[C@H](CO)[C@@H](OC(=O)C(C)C)C1(C)O (stereo partly drawn) [Compound 125, Isobutyric acid 4-hydroxy-2-hydroxymethyl-5-(9-isobutyryloxymethoxycarbonyl-amino-7-oxo-6,7-dihydro-2,3,5,6-tetraaza-benzo[cd]azulen-2-yl)-4-methyl-tetrahydro-furan-3-yl ester] | 51 µg/mL (≈ 90.8 µM) |  |
| Cc1oc(=O)oc1COC(=O)NC1=CC(=O)Nc2ncnc3c2c1cn3[C@@H]1O[C@H](CO)[C@@H](O)C1(C)O (stereo partly drawn) [Compound 126, [2-(3,4-Dihydroxy-5-hydroxymethyl-3-methyl-tetrahydro-furan-2-yl)-7-oxo-6,7-dihydro-2H-2,3,5,6-tetraaza-benzo[cd]azulen-9-yl]-carbamic acid5-methyl-2-oxo-[1,3]dioxol-4-ylmethyl ester] | 40 µg/mL (≈ 79.5 µM) |  |
| CCC(=O)OC[C@H]1O[C@@H](n2cc3c4c(ncnc42)NC(=O)C=C3N)C(C)(OC(=O)CC)[C@@H]1OC(=O)CC (stereo partly drawn) [Compound 127, Propionic acid 5-(9-amino-7-oxo-6,7-dihydro-2,3,5,6-tetraaza-benzo[cd]azulen-2-yl)-4-methyl-3,4-bis-propionyloxy-tetrahydro-furan-2-ylmethyl ester] | 133 µg/mL (≈ 258 µM) |  |
| CC(C)C(=O)OCOC(=O)NC1=CC(=O)Nc2ncnc3c2c1cn3[C@@H]1O[C@H](COC(=O)C(C)C)[C@@H](O)C1(C)O (stereo partly drawn) [Compound 129, Isobutyric acid 3,4-dihydroxy-5-(9-isobutyryloxymethoxycarbonyl-amino-7-oxo-6,7-dihydro-2,3,5,6-tetraaza-benzo[cd]azulen-2-yl)-4-methyl-tetrahydro-furan-2-ylmethylester] |  | half-life at 1 µg/mL [2]: > 2 h; solubility at 24 h ([1]; sterile water, water): 120 µg/mL (≈ 214 µM) |
| CC(C)C(=O)OC[C@H]1O[C@@H](n2cc3c4c(ncnc42)NC(=O)C=C3N)C(C)(OC(=O)C(C)C)[C@@H]1OC(=O)C(C)C (stereo partly drawn) [Compound 132, Isobutyric acid 5-(9-amino-7-oxo-6,7-dihydro-2,3,5,6-tetraaza-benzo[cd]azulen-2-yl)-3,4-bis-isobutyryloxy-4-methyl-tetrahydro-furan-2-ylmethyl ester] | 44 µg/mL (≈ 78.9 µM) |  |
